Measured values from US20110112184A1, “COMPOUNDS WITH GLYCIDIC STRUCTURE ACTIVE IN THE THERAPY OF SYSTEMIC AND LOCAL INFLAMMATION” (priority 2008, published 2011).

Tests used:
[1] = Stability of compound 4 towards pH variations by 1H-NMR; type: physicochemical; details: D2O, room temperature, spectra at 10 min, 4.5 h and 24 h
Method: Stability of compound 4 towards pH variations is evaluated through ^1H-NMR analysis. Two samples are prepared, one in acidic conditions and one in basic conditions; the first is prepared by dissolving 2.3 mg in 550 μl of D2O and adjusting to pH 1.2 through DCl addition, while the second is prepared by dissolving 3 mg of compound 4 in 550 μl of D2O and adjusting to pH 12.5 through NaOD addition. The two samples are kept at room temperature and ^1H-NMR spectra thereof are recorded at time 10 min, 4.5 h and 24 h.
FIG. 1. ^1H-NMR spectra of compound 4 at pH 12.5 and at pH 1.2.

[2] = system: LPS/GalN-induced shock in FVB mice; experiment: LPS/galactosamine-induced shock in mice; type: in vivo; details: LPS 5 μg/mouse + GalN 40 mg/mouse i.p., compound 4 25 μg/kg (0.5 μg/mouse) p.o.
Method: FIG. 4. Protection afforded by comp 4 in LPS-induced shock in mice. Untr=untreated; LPSGalN=Mice treated with LPS/GalN alone; LPSGalN Comp 4=Mice treated with LPS/GalN+Comp 4=Mice treated with Comp 4 alone.
Compound 4 was tested in LPS/galactosamine (GalN)-induced shock in mice. LPS shock was induced in 2-months old FVB mice through intraperitoneal (i.p). injection of 5 μg LPS/mouse (LPS from Salmonella enterica abortus equi) and 40 mg/mouse GalN (LPS/GalN).

[3] = system: DSS-treated FVB mice; experiment: Acute colitis (acute Crohn-like disease) induced by DSS 2% in mice; type: in vivo; details: acute model
Method: FIG. 5. TNF-α levels in mice treated with DSS alone or DSS+comp 4. Untr=Untreated; DSS=Mice treated with DSS alone; DSS comp 4=Mice treated with DSS and comp 4;=Mice treated comp 4 alone.
In mice induced for acute Crohn's disease, modifications of epithelial permeability of the intestine were determined by measuring intestinal transmembrane resistance using the Ussing chamber. For this purpose, 2-months old FVB mice were administered dextran sulfate sodium (DSS) 2% in the drinking water for 7 days (Wirtz et al, 2007). […] Eventually, the serum levels of the inflammatory cytokine TNF-α were measured in mice treated with DSS alone or with DSS+4.

[4] = system: Caco-2 enterocytes; experiment: Doxorubicin-induced injury of Caco-2 enterocytes (ROS in culture medium); type: cell-based; details: Caco-2 monolayer, 3 μM doxorubicin + compound 4
Method: FIG. 10. Measurement of ROS in the cell culture medium of untreated enterocytes or enterocytes treated with doxorubicin+compound 4. Ctrl=Untreated (control) cells; Doxo=Cells treated with doxorubicin alone; Doxo comp 4=Cells treated with doxorubicin and compound 4.
Compound 4 has shown protective efficacy also in an in vitro model of chemotherapy-induced injury of enterocytes. In this model, a monolayer of Caco-2 enterocytes was treated with 3 μM doxorubicin alone or doxorubicin and 4.

[5] = system: mice treated with doxorubicin and 5-fluoruracil; experiment: Chronic doxorubicin- and 5-fluoruracil-induced enterocyte injury in mice; type: in vivo
Method: FIG. 11. Serum levels of KC in untreated mice or mice submitted to acute treatment with doxorubicin or chronic treatment with doxorubicin and 5-fluorouracil. Untr=Untreated; Doxo 27 mg=Mice submitted to acute treatment with doxorubicin; Doxo 27 mg comp 4=Mice submitted to acute treatment with doxorubicin and concomitant p.o. administration of comp 4; Doxo cron=Mice submitted to chronic treatment with doxorubicin and 5-fluoruracil; Doxo cron comp 4=Mice submitted to chronic treatment with doxorubicin and 5-fluoruracil and concomitant p.o. administration of compound 4.
FIG. 13. Histology of the epithelium of the small intestine in mice after chronic treatment with doxorubicin and 5-fluoruracil (DOXO+FLUO) or chronic treatment with doxorubicin and 5-fluoruracil and concomitant administration of compound 4 (comp 4+DOXO+FLUO).
For the chronic model of enterocyte injury, doxorubicin was administered 1×/week for three weeks (7 mg/kg for the first two administrations, […] for the last administration). At the same times, mice were administered also 5-fluoruracil at 100 mg/kg. Administrations of the chemotherapeutics were performed intraperitoneally. Some of the mice were treated at the same times with compound 4 (25 μg/kg, orally). Recovery of the blood for the determination of circulating KC levels and subsequent sacrifice of the animals were performed at 72 h after the last treatment. […]

[6] = system: SGLT-1-mediated intestinal glucose absorption; experiment: Glycemia in mice after oral glucose challenge; type: in vivo; details: plasma, mice challenged orally with 2.5 g/kg glucose + 250 μg/kg compound 4, 1 h
Method: As such, it was argued that it might act as a functional antagonist of SGLT-1-mediated intestinal glucose absorption, and used for the control of hyperglycemia in type II diabetes. This possibility was tested in the following experiments.
In a first set of experiments mice were orally challenged with 2.5 g/kg of glucose with or without concomitant administration of compound 4 (250 μg/kg) and glycemia was measured after 1 h.

Stability towards pH (degradation by 1H-NMR) ([1]; pH 1.2 (DCl)): no degradation
Stability towards pH (degradation by 1H-NMR) ([1]; pH 12.5 (NaOD)): no degradation
SMILES: CN(C)c1cccc2c(S(=O)(=O)NCC[C@H]3O[C@H](CO)[C@@H](O)[C@H](O)[C@H]3O)cccc12 [Compound 4, 5-(Dimethylamino)-N-[2′-(α-D-glucopyranosyl)ethyl]-1-naphthalenesulphonamide]
Protection against LPS/GalN-induced shock [2]: full protection
Serum levels of TNF-α (increase induced by DSS 2%) ([3]; DSS 2% + compound 4): strongly inhibited
Intestinal transmembrane resistance ([3]; DSS 2% in drinking water 7 days + compound 4, Ussing chamber): 49 Ω × cm^2
reactive oxygen species (ROS) in the cell culture medium [4]: complete inhibition
Histology of the small intestine ([5]; chronic doxorubicin + 5-fluoruracil + compound 4 25 μg/kg orally): completely normal morphology
circulating KC levels ([5]; doxorubicin 1×/week for three weeks + 5-fluoruracil 100 mg/kg i.p. + compound 4 25 μg/kg orally, 72 h after last treatment): brought the levels back to those observed in untreated mice
Glycemia levels [6]: 150 mg/dL
